Patent US20100303754A1, “PROCESS FOR PREPARATION OF CYCLODEXTRIN OLIGOMERS OR POLYMERS, PRODUCTS OBTAINED AND USES” (BIOCYDEX, priority 2006, published 2010)
Values after ≈ are worked out from the molar mass of the structure shown.

Assay: Solubilization tests of active ingredients by cyclodextrin dimers/trimer (soluble fraction analysed by CLHP)
Format: physicochemical
Conditions: thermodynamic from solid; Water alone, no cyclodextrin oligomer; stirred 24 hours; read-out: Amount of active ingredient solubilized in water
Procedure: Each solution is stirred for 24 hours, and then the soluble fractions are analyzed by CLHP after ultracentrifuging and filtration.

SMILES	solubility at 24 h
C[C@@H](c1ncncc1F)[C@](O)(Cn1cncn1)c1ccc(F)cc1F [Voriconazole]	685 µg/mL (≈ 1960 µM)
CC[C@H]1OC(=O)[C@H](C)[C@@H](O[C@H]2C[C@@](C)(OC)[C@@H](O)[C@H](C)O2)[C@H](C)[C@@H](O[C@@H]2O[C@H](C)C[C@H](N(C)C)[C@H]2O)[C@](C)(O)C[C@@H](C)/C(=N\OCOCCOC)[C@H](C)[C@@H](O)[C@]1(C)O [Roxithromycin]	464 µg/mL (≈ 555 µM)
CCC(=O)O[C@]1(C(=O)SCF)[C@H](C)C[C@H]2[C@@H]3C[C@H](F)C4=CC(=O)C=C[C@]4(C)[C@@]3(F)[C@@H](O)C[C@@]21C [Fluticasone Propionate]	0.1 µg/mL (≈ 0.2 µM)

Continued, values first:

solubility at 24 h	SMILES
0.7 µg/mL (≈ 0.82 µM)	CC(=O)O[C@H]1C(=O)[C@@]2(C)[C@H]([C@H](OC(=O)c3ccccc3)[C@]3(O)C[C@H](OC(=O)[C@H](O)[C@@H](NC(=O)c4ccccc4)c4ccccc4)C(C)=C1C3(C)C)[C@]1(OC(C)=O)CO[C@@H]1C[C@@H]2O [Taxol]
4 µg/mL (≈ 4.95 µM)	CC(=O)O[C@@]12CO[C@@H]1C[C@H](O)[C@@]1(C)C(=O)[C@H](O)C3=C(C)[C@@H](OC(=O)[C@H](O)[C@@H](NC(=O)OC(C)(C)C)c4ccccc4)C[C@@](O)([C@@H](OC(=O)c4ccccc4)[C@H]21)C3(C)C [Taxotere]
